The assay deals with T1, Microtubule affinity regulatory kinase 4 (MARK4) (Homo sapiens, UniProt Q96L34).
T1 sequence (Q96L34 1-752): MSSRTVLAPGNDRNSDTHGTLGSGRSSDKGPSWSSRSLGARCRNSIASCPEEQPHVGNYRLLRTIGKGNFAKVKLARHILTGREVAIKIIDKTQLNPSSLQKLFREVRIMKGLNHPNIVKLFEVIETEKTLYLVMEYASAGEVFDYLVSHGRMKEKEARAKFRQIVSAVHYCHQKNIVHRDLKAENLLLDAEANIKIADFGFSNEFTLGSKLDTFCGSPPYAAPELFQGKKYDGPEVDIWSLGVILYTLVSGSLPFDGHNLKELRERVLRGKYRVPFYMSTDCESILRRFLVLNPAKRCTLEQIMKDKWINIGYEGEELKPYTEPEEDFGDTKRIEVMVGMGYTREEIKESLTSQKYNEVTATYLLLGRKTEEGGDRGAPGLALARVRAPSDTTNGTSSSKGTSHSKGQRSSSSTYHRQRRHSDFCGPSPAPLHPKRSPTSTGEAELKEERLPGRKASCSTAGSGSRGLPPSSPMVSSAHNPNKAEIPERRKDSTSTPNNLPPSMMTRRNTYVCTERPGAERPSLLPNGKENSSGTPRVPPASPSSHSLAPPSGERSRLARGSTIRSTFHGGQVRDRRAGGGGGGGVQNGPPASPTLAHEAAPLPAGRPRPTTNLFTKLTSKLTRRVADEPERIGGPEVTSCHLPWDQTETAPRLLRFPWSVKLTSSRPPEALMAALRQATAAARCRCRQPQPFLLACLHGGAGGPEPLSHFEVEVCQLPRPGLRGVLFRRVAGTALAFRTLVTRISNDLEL
Briefly: malachite green ATPase. Type of assay: biochemical.

As usually defined, the IC50 is the concentration that gives 50% inhibition. Low readings indicate inhibition by little substance, high ones a need for much substance. In the case of `CC#CCn1c(N2CCC[C@@H](N)C2)nc2c1c(=O)n(Cc1nc(C)c3ccccc3n1)c(=O)n2C` [linagliptin], the IC50 is 7.63 µM. That is a single-digit micromolar value. As for `OC[C@H]1O[C@@H](c2ccc(Cl)c(Cc3ccc(O[C@H]4CCOC4)cc3)c2)[C@H](O)[C@@H](O)[C@@H]1O` [empagliflozin], the IC50 was 7.1 µM.

These data come from publication PMC9948186 (ACS Omega, 2023).
